These results are taken from patent publication US20220267260A1, “COMPOUNDS CONTAINING A SULFONIC GROUP AS KAT INHIBITORS” (Epizyme, Inc., priority 2016, published 2022).

Bounds are passed on as bounds.

One test has as its target T1, KAT5 (Homo sapiens, UniProt Q92993).
T1 construct: His-TEV tag (N, cleaved yes); made in house
The test is described as follows: KAT5 enzyme inhibition assay (SAMDI mass spectrometry). The settings on record: His-TEV-FL KAT5-Flag enzyme construct. The format is biochemical.

Another test concerns the target T2, KAT6A (Homo sapiens, UniProt Q92794).
T2 construct: His-TEV tag (N, cleaved yes); made in house
Nature of the test: KAT6A enzyme inhibition assay (SAMDI mass spectrometry). The following applies: His-TEV-KAT6A 501-784 enzyme construct. In kind it is biochemical.

A word on the IC50: it is the concentration needed to halve the response being measured. A higher IC50 goes with a need for much substance.

T1 sequence (Q92993 with tags, fused parts or gaps): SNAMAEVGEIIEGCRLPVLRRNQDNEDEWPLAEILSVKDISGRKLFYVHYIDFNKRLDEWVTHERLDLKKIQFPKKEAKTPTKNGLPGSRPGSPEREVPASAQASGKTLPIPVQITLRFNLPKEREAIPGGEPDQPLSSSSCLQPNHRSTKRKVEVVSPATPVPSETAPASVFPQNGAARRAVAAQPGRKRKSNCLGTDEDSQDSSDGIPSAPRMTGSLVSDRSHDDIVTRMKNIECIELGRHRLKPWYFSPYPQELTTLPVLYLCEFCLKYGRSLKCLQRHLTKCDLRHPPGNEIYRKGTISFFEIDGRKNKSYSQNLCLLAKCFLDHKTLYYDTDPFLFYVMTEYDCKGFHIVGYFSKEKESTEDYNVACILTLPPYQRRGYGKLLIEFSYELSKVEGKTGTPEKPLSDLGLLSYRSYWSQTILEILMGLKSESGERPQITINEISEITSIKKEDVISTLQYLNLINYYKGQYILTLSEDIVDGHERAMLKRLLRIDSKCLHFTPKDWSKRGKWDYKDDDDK
T2 sequence (Q92794 with tags, fused parts or gaps): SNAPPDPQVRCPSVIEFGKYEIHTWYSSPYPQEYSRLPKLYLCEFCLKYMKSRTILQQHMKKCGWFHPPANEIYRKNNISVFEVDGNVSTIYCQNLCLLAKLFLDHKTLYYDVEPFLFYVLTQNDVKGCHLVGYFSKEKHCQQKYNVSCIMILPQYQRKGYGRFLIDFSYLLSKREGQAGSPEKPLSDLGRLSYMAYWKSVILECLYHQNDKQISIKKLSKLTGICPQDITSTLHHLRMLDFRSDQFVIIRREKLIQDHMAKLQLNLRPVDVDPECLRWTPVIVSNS

Turning to `O=S(=O)(Nc1ncc(-c2cc(-c3ccccc3)ccc2F)[nH]1)c1ccccc1` [Compound I-67], the IC50 against KAT5 and at KAT6A was above 100 µM throughout.

Consider `Cc1cc(-c2ccccc2)cc(C(=O)NNS(=O)(=O)Cc2ccccc2F)c1F` [Compound I-82], for which the IC50 against KAT5 and against KAT6A was at most 10 µM throughout.

For `Cn1cnc2cc(-c3ccccc3)c(F)c(C(=O)NNS(=O)(=O)C3CCCCC3)c21` [Compound I-402], the IC50 against KAT5 and on KAT6A was above 100 µM in each case.

Turning to `CNC(=O)Cn1nc(C)c(F)c1C(=O)NNS(=O)(=O)C1CCCCC1` [Compound I-503], the IC50 at KAT5 and on KAT6A was above 100 µM throughout.

Regarding `Cc1cc(-c2ccccc2)cc(C(=O)NNS(=O)(=O)C2CCN(Cc3ccccc3Cl)C2)c1F` (stereo not drawn) [Compound I-29], the IC50 against KAT5 and at KAT6A was at most 10 µM each time.

As to `COc1cccc(-c2cc(C)c(F)c(C(=O)NNS(=O)(=O)C3CCCCC3)c2)c1` [Compound I-348], the IC50 at KAT5 and at KAT6A was 10 to 50 µM throughout.

Take `COc1ccccc1S(=O)(=O)NNC(=O)c1ccccc1F` [Compound I-174]: the IC50 against KAT5 and on KAT6A was above 100 µM throughout.

On to `O=C(NNS(=O)(=O)c1cccc(Cl)c1)c1c(F)ccc(-c2ccccc2)c1F` [Compound I-161], for which the IC50 at KAT5 is 10 to 50 µM; at KAT6A, at most 10 µM.

For `O=C(NNCc1ccccc1)c1ccccc1F` [Compound I-169], the IC50 at KAT5 and against KAT6A was above 100 µM each time.

For the molecule `CN(C)C(=O)c1cc(Cl)c(F)c(C(=O)NNS(=O)(=O)C2CCOCC2)c1` [Compound I-434], the IC50 on KAT5 and on KAT6A was above 100 µM in each case.

As to `O=C(NNS(=O)(=O)CC1CCCN(C(=O)C2CCOCC2)C1)c1cc(-c2ccccc2)cc(Cl)c1F` (stereo not drawn) [Compound I-419], the IC50 at KAT5 and against KAT6A was at most 10 µM in each case.

Take `Cc1c(-c2ccccc2)ccc(F)c1C(=O)NCC(=O)NC(Cc1ccccc1)C(C)C` (stereo not drawn) [Compound I-387]: the IC50 on KAT5 and against KAT6A was above 100 µM throughout.

As for `Cc1cc(-c2ccccc2)c(F)c(C(=O)NNS(=O)(=O)c2ccccc2)c1F` [Compound I-223], the IC50 on KAT5 and at KAT6A was at most 10 µM throughout.

As to `O=C(NNS(=O)(=O)C1CCCCC1)c1c(F)c(-c2ccccc2)cc2nc[nH]c12` [Compound I-467], the half-maximal inhibitory concentration (IC50) against KAT5 and against KAT6A was above 100 µM in each case.

As to `Cc1cc(-c2ccccc2)cc(C(=O)NNS(=O)(=O)C2COC2)c1F` [Compound I-55], the IC50 against KAT5 and against KAT6A was 10 to 50 µM each time.

With `CC(=O)N1CCCC(CS(=O)(=O)NNC(=O)c2cc(-c3cccc(F)c3)cc(C)c2F)C1` (stereo not drawn) [Compound I-330], the IC50 at KAT5 and at KAT6A was at most 10 µM each time.

Regarding `CNC(=O)c1cccc(-c2cc(C)c(F)c(C(=O)NNS(=O)(=O)C3CCCCC3)c2)c1` [Compound I-458], the IC50 at KAT5 and against KAT6A was above 100 µM each time.

Consider `O=C(NNS(=O)(=O)C1CCCCC1)c1cc(-c2cc(F)cc(F)c2)cc(Cl)c1F` [Compound I-392], for which the half-maximal inhibitory concentration (IC50) was at most 10 µM at KAT5 and 10 to 50 µM against KAT6A.

Consider `O=C(NNS(=O)(=O)c1ccc(Cl)cc1)c1c(F)ccc(-c2ccccc2)c1F` [Compound I-156], for which the values for the concentration for half-maximal inhibition (IC50) at KAT5 and against KAT6A were 10 to 50 µM and at most 10 µM, respectively.

As to `Cn1ccnc1-c1ccc(F)c(C(=O)NNS(=O)(=O)c2ccccc2)c1F` [Compound I-172], the IC50 at KAT5 is above 100 µM; against KAT6A, 10 to 50 µM.

`Cc1cc(-c2cccc(Cl)c2)cc(C(=O)NNS(=O)(=O)c2ccccc2)c1F` [Compound I-340]: the half-inhibitory concentration (IC50) against KAT5 and at KAT6A was at most 10 µM in each case.

As for `COc1cccc(-c2cc(C)c(F)c(C(=O)NNS(=O)(=O)CC3CCCCC3)c2)c1` [Compound I-298], the IC50 against KAT5 is at most 10 µM; against KAT6A, 10 to 50 µM.

On to `O=C(NS(=O)(=O)c1ccccc1)c1c[nH]c2ccccc12` [Compound I-185], for which the IC50 at KAT5 and at KAT6A was above 100 µM in each case.

As to `Cc1cccc(C(=O)NNS(=O)(=O)c2ccccc2)c1F` [Compound I-183], the IC50 was 10 to 50 µM on KAT5 and at most 10 µM against KAT6A.

Take `Cc1nn(CC(=O)NCCO)c(C(=O)NNS(=O)(=O)C2CCCCC2)c1F` [Compound I-504]: the IC50 on KAT5 and against KAT6A was above 100 µM in each case.

As for `Cc1cc(-c2cccc(F)c2)cc(C(=O)NNS(=O)(=O)CC2CCCN(C(=O)C(C)(C)C)C2)c1F` (stereo not drawn) [Compound I-294], the IC50 at KAT5 and against KAT6A was at most 10 µM throughout.

Take `CCC(=O)N1CCCC(CS(=O)(=O)NNC(=O)c2cc(-c3ccccc3)cc(C)c2F)C1` (stereo not drawn) [Compound I-280]: the IC50 against KAT5 and at KAT6A was at most 10 µM throughout.

Consider `CNC(=O)c1cc(Cl)c(F)c(C(=O)NNS(=O)(=O)C2CCOCC2)c1` [Compound I-491], for which the IC50 at KAT5 and at KAT6A was above 100 µM throughout.

With `CC1CCCC(C)N1C(=O)NNS(=O)(=O)c1ccccc1` (stereo not drawn) [Compound I-15], the concentration for half-maximal inhibition (IC50) at KAT5 and at KAT6A was above 100 µM in each case.

In the case of `Cc1cccc(S(=O)(=O)NNC(=O)c2cc(-c3ccccc3)ccc2F)c1` [Compound I-131], the IC50 against KAT5 was above 100 µM; against KAT6A it was at most 10 µM.

With `Cc1cc(-c2ccccc2)cc(C(=O)NNS(=O)(=O)C2CCN(C(C)C)CC2)c1F` [Compound I-92], the IC50 against KAT5 and at KAT6A was above 100 µM each time.

For `Cc1cc(-c2cccc(F)c2Cl)cc(C(=O)NNS(=O)(=O)C2CCCCC2)c1F` [Compound I-399], the IC50 on KAT5 and against KAT6A was 50 to 100 µM throughout.

As to `O=C(NNS(=O)(=O)C1CCCCC1)c1cc(-c2ccccc2)cc(Cl)c1F` [Compound I-306], the IC50 against KAT5 and on KAT6A was at most 10 µM each time.

On to `CC(=O)N1CCCC(CS(=O)(=O)NNC(=O)c2cc(-c3ccccc3)cc(C)c2F)C1` (stereo not drawn) [Compound I-322], for which the IC50 against KAT5 and against KAT6A was at most 10 µM throughout.

Consider `COCC(=O)N1CCC(CS(=O)(=O)NNC(=O)c2cc(-c3ccccc3)cc(C)c2F)CC1` [Compound I-344], for which the IC50 against KAT5 and on KAT6A was at most 10 µM each time.

`O=C(NNS(=O)(=O)c1ccccc1)c1ncccc1F` [Compound I-252]: the IC50 against KAT5 was above 100 µM; against KAT6A it was 50 to 100 µM.

For `O=C(NNS(=O)(=O)CC1CCCCC1)c1cc(-c2cn3ccccc3n2)cc(Cl)c1F` [Compound I-510], the IC50 against KAT5 was at most 10 µM; against KAT6A, above 100 µM.

On to `Cc1cc(-c2cccc(OCCN(C)C)c2)cc(C(=O)NNS(=O)(=O)CC2CCCCC2)c1F` [Compound I-365], for which the IC50 against KAT5 was 50 to 100 µM; against KAT6A, above 100 µM.

As for `O=C(NNS(=O)(=O)c1ccccc1)c1ncccn1` [Compound I-189], the IC50 on KAT5 and against KAT6A was above 100 µM each time.

On to `Cc1cc(-c2ccccc2)cc(C(=O)N2CCC(S(=O)(=O)c3ccccc3)C2)c1F` (stereo not drawn) [Compound I-73], for which the IC50 on KAT5 and against KAT6A was above 100 µM each time.

With `O=C(NNS(=O)(=O)c1ccccc1)c1cccc(Cl)c1` [Compound I-190], the IC50 against KAT5 was in the range of 50 to 100 µM; at KAT6A, 10 to 50 µM.

As to `COc1cc(Cl)c(F)c(C(=O)NNS(=O)(=O)CC2CCOCC2)c1` [Compound I-431], the values for the IC50 against KAT5 and against KAT6A were 10 to 50 µM and 50 to 100 µM, respectively.

For the molecule `Cc1cc(-c2ccccc2)cc(C(=O)NCC(O)c2ccccc2)c1F` (stereo not drawn) [Compound I-178], the IC50 against KAT5 and on KAT6A was above 100 µM each time.

For the molecule `O=C(NNS(=O)(=O)C1CCOCC1)c1cc(Cl)cc(Cl)c1F` [Compound I-414], the IC50 on KAT5 and on KAT6A was above 100 µM each time.

As to `CNC(=O)c1cccc(S(=O)(=O)NNC(=O)c2cc(-c3ccccc3)cc(C)c2F)c1` [Compound I-219], the 50% inhibitory concentration (IC50) against KAT5 and at KAT6A was at most 10 µM each time.

For `O=C(NNS(=O)(=O)C1CCCCC1)c1c(F)ccc(-c2ccccc2)c1Cl` [Compound I-312], the IC50 against KAT5 and against KAT6A was above 100 µM throughout.

Regarding `O=C(NNS(=O)(=O)c1ccccc1)c1cc(-c2ccccc2)cc2cc[nH]c12` [Compound I-14], the IC50 against KAT5 and on KAT6A was 10 to 50 µM in each case.

Consider `Cc1cc(-c2ccccc2)cc(C(=O)NNS(=O)(=O)CC2CCN(CCO)CC2)c1F` [Compound I-343], for which the IC50 at KAT5 and on KAT6A was 10 to 50 µM in each case.

Take `O=C(NNS(=O)(=O)C1CCCCC1)c1cc(-c2cccc(CO)c2)cc(Cl)c1F` [Compound I-485]: the figures for the IC50 against KAT5 and against KAT6A were at most 10 µM and 10 to 50 µM, respectively.

As for `Cn1cc(-c2ccc(F)c(Cl)c2)nc1C(=O)NNS(=O)(=O)CC1CCOCC1` [Compound I-478], the IC50 against KAT5 and on KAT6A was above 100 µM each time.

With `O=C(NNS(=O)(=O)c1cccc(-c2ccccc2)c1)C1CCCCC1` [Compound I-522], the 50% inhibitory concentration (IC50) on KAT5 and against KAT6A was above 100 µM throughout.

Regarding `Cc1c(-c2ccccc2)ccc(F)c1C(=O)NNS(=O)(=O)c1cccc(Cl)c1` [Compound I-128], the IC50 lay in the range of 50 to 100 µM against KAT5 and 10 to 50 µM against KAT6A.

`Cc1cccc(-c2cc(C)c(F)c(C(=O)NNS(=O)(=O)c3ccccc3)c2)c1` [Compound I-326]: the IC50 at KAT5 and against KAT6A was at most 10 µM each time.

Take `Cc1cc(-c2ccccc2)cc(C(=O)NNS(=O)(=O)Cc2cccc(F)c2)c1F` [Compound I-83]: the IC50 against KAT5 and on KAT6A was at most 10 µM throughout.

Turning to `O=C(NNS(=O)(=O)c1ccccc1)c1n[nH]c2ccccc12` [Compound I-196], the IC50 was above 100 µM on KAT5 and 50 to 100 µM against KAT6A.

Turning to `COCC(=O)N1CCC(CS(=O)(=O)NNC(=O)c2cc(-c3ccccc3)cc(C)c2F)C1` (stereo not drawn) [Compound I-356], the IC50 against KAT5 and at KAT6A was at most 10 µM in each case.

Turning to `Cn1ncc2c(C(=O)NNS(=O)(=O)c3ccccc3)cc(-c3ccccc3)cc21` [Compound I-20], the IC50 against KAT5 and on KAT6A was above 100 µM in each case.
